According to patent US4415495A, “5,6;8,9-Tetrahydro-7H-dibenz(d,f)azonines” (Godecke Aktiengesellschaft, priority 1981, dated 1983):

Columns and labels:
[1] = tested on: Rats with calcium chloride induced arrhythmias; experiment: Calcium chloride induced arrhythmias in narcotised rats (prophylactic i.v. administration); assay type: in vivo; details: control 10.9 min.
Source text: By means of the intravenous infusion of a calcium chloride solution, […] induced in narcotised rats which, after termination of the infusion, continue for a certain period of time (modification of the method described by Malinow et al., Arch. Int. Pharmacodyn, 102, 266/1955). This arrhythmic phase is shortened by the prophylactic administration of antiarrhythmic drugs. […] The results of the experiments with calcium chloride induced arrhythmias on rats are summarized in the following Table I. The average period of arrhythmia is calculated from experiments with at least 10 animals.

[2] = tested on: guinea pig left ventricle; experiment: Refractory time of electrically stimulated guinea pig left ventricles (organ bath)
Description: The left ventricles of guinea pig hearts are electrically stimulated in an organ bath, the amplitude of contraction being recorded. By means of a second stimulus, the time is determined below which the heart muscle no longer reacts with a separately resolvable contraction. This time is defined as the refractory time.
The following Table II contains information concerning the maximum tested compound concentrations, as well as the average prolongation of the refractory time measured at this concentration in comparison with the initial value of, in each case, at least 6 experiments.

rabbit eye = experiment: Local anesthetic action on the rabbit eye (corneal reflex); assay type: in vivo, rabbits; details: for Period of Action: observation discontinued after 60 minutes
Description: The corneal reflex is induced in rabbits using a horse hair which bends with a pressure of about 250 mg (modification of the method described by M. von Frey, Beitrage zur Physiologie des Schmerzsinns, Vehr. d. Kgl. Sachs, Ges. d. Wiss. zu Leipzig, Math.-phys. Kl., 46, 185/1894; Untersuchungen uber die Sinnesfunktionen der menschlichen Haut, Leipzig, 1896). After instillation of local anesthetics into the conjunctival sac of the eye, the number of impacts with the horse hair which result in closure of the eyelid is increased. At intervals of 4 minutes, in each case a maximum of 100 successive impacts are carried out and such an action is taken as being 100%. The period of investigation is at most 60 minutes. The action of the compounds according to the present invention is compared with that of tetracaine and procainamide.
The following Table VII contains the results of the experiments on the rabbit eye. There are also given, in addition to the concentrations of the test solutions which were instilled into the conjunctival sac, the actions of the compounds in % (see description of the method), as well as their period of action. In each case, the observations were discontinued after 60 minutes.

in vivo = details: mouse, po
Description: The compounds according to the present invention are administered intragastrally to male mice (NMRI) with a body weight of from 20 to 25 g. Each dosage group consists of 4 animals. The LD50 values are determined after having observed the animals for 7 days.

[3] = tested on: dogs with coronary ligature; experiment: Coronary ligature on dogs (period of sinus rhythm from ECG); assay type: in vivo
Source text: Using narcotised dogs, after thoracotomy, a coronary artery (side branch of the R. interventr. post. or of the R. circumflexus) is ligatured (see. A. S. Harris, Circulation, 1, 1318/1950). The heart rhythm disturbances which occur as a result thereof are, on the day following the operation, recorded on the awake animals and treated with the compounds according to the present invention by intragastral and intravenous administration. Procainamide is used as a positive standard. From the ECG, the time is determined in which, after administration of the test compound, a sinus rhythm can be recognized.
The compounds of Examples 1 (Table III), 4 (Table IV) and 10 (Table V) were tested on dogs with a coronary ligature. All the compounds were, in each case, tested on at least 5 animals.

[4] = Oryctolagus cuniculus, topical, concentration 1.0 %
[5] = Oryctolagus cuniculus, topical, concentration 0.5 %

Compound | average prolongation of the refractory time ([2]; 4.0 × 10^-6 g/ml in the bath) [ms] | inhibition in vivo at 1 % (rabbit eye; [4]) [%] | Period of Action (rabbit eye; concentration 1.0 %) [min] | LD50 at 168 h (in vivo) [mg/kg] | average period of arrhythmia ([1]; 10 mg/kg I.V.) [min] | inhibition in vivo at 0.5 % (rabbit eye; [5]) [%] | Period of Action (rabbit eye; concentration 0.5 %) | also measured
COc1ccc2c(c1)-c1c(ccc(OC)c1OC)CC(Cc1ccccc1)N(C)CC2 (racemic) [Example 5, (±)-6-Benzyl-7-methyl-5,6;8,9-tetrahydro-1,2,12-trimethoxy-7H-dibenz(d,f)azonine] | 25 | 100 | > 60 | ~1000 |  |  |  | average period of arrhythmia ([1]; 5 mg/kg I.V.): 4.1 min
COc1ccc2c(c1)-c1c(ccc(OC)c1O)CC(CCc1ccccc1)N(C)CC2 (single isomer, unassigned; (+)) [Example 10, (+)-2,12-Dimethoxy-1-hydroxy-7-methyl-6-phenethyl-5,6;8,9-tetrahydro-7H-dibenz(d,f)azonine] | 44 | 100 | > 60 | 600 |  |  |  | average period of arrhythmia ([1]; 2.5 mg/kg I.V.): 5.4 min; average period of eurhythmia ([3]; 2 mg/kg i.v.): 40 min; average period of eurhythmia ([3]; 5 mg/kg i.g.): 105 min; average period of eurhythmia ([3]; 10 mg/kg i.g.): 169 min; average period of eurhythmia ([3]; 40 mg/kg i.g.): 185 min
COc1cccc(CC2Cc3ccc(OC)c(O)c3-c3cc(OC)ccc3CCN2C)c1 (single isomer, unassigned; (-)) [Example 2, (-)-6-(3'-Methoxybenzyl)-2,12-dimethoxy-1-hydroxy-7-methyl-5,6;8,9-tetrahydro-7H-dibenz(d,f)azonine] |  | 100 | > 60 | 1000 | 4.9 | 100 | about 52 Min. | average prolongation of the refractory time ([2]; 8.0 × 10^-6 g/ml in the bath): 46 ms; inhibition in vivo at 0.1 % (rabbit eye; Oryctolagus cuniculus, topical, concentration 0.1 %): 78%; Period of Action (rabbit eye; concentration 0.1 %): 46 min
COc1ccc2c(c1)-c1c(ccc(OC)c1O)CC(Cc1ccc(F)cc1)N(C)CC2 (single isomer, unassigned; (-)) [Example 3, (-)-6-(4'-Fluorobenzyl)-2,12-dimethoxy-1-hydroxy-7-methyl-5,6;8,9-tetrahydro-7H-dibenz(d,f)azonine] |  |  |  | 600 | 5.4 | 100 | > 60 min | average prolongation of the refractory time ([2]; 1.6 × 10^-5 g/ml in the bath): 29 ms
COc1ccc2c(c1)-c1c(ccc(OC)c1O)CC(Cc1ccccc1Cl)N(C)CC2 (single isomer, unassigned; (-)) [Example 4, (-)-6-(2'-Chlorobenzyl)-2,12-dimethoxy-hydroxy-7-methyl-5,6;8,9-tetrahydro-7H-dibenz(d,f)azonine] |  |  |  | 1200 | 2.3 |  |  | average period of arrhythmia ([1]; 5 mg/kg I.V.): 4.6 min; average prolongation of the refractory time ([2]; 1.6 × 10^-5 g/ml in the bath): 21 ms; average period of eurhythmia ([3]; 4 mg/kg i.v.): 68 min; average period of eurhythmia ([3]; 40 mg/kg i.g.): 91 min; average period of eurhythmia ([3]; 60 mg/kg i.g.): 103 min; average period of eurhythmia ([3]; 80 mg/kg i.g.): 139 min
COc1cccc(CC2Cc3ccc(OC)c(OC)c3-c3cc(OC)ccc3CCN2C)c1 (single isomer, unassigned; (-)) [Example 6, (-)-6-(3'-Methoxybenzyl)-7-methyl-5,6;8,9-tetrahydro-1,2,12-trimethoxy-7H-dibenz(d,f)azonine] |  | 79 | > 60 | ~300 |  |  |  | average period of arrhythmia ([1]; 4 mg/kg I.V.): 4.6 min; inhibition in vivo at 2 % (rabbit eye; Oryctolagus cuniculus, topical, concentration 2.0 %): 100%; Period of Action (rabbit eye; concentration 2.0 %): > 60 min
COc1cccc(CC2Cc3ccc(OC)c(OC(C)=O)c3-c3cc(OC)ccc3CCN2C)c1 (single isomer, unassigned; (-)) [Example 7, (-)-1-Acetoxy-6-(3'-methoxybenzyl)-7-methyl-5,6;8,9-tetrahydro-2,12-dimethoxy-7H-dibenz(d,f)azonine] | 18 | 100 | > 60 | 900 |  | 63 | > 60 min | average period of arrhythmia ([1]; 4 mg/kg I.V.): 4.1 min
